Test results: US11414384B2, “P300/CBP hat inhibitors” (Constellation Pharmaceuticals, Inc., priority 2018, dated 2022)

Tests used:
[1] = target: full length p300 (Homo sapiens (Human), UniProt Q09472); assay: full length p300 SPA assay; format: biochemical; settings: average of at least 2 replicate titrations, read-out: FL P300 IC50
Description: Reactions were initiated with 12.5 μL 2 μM biotinylated H3(1-21) peptide (New England Peptide) and run for 1 hr at RT, then quenched with 20 μL stop solution (200 mM Tris pH 8.0, 200 mM EDTA, 2M NaCl, 160 μM anacardic acid). 35 μL of the reaction volume was transferred to a 384-well streptavidin FlashPlate (PerkinElmer) using a Bravo liquid handler (Velocity 11) and incubated for 1.5 hr at RT. Plates were aspirated, washed with 95 μL wash buffer (15 mM Tris pH 8.5, 0.069 μM Brij-35), aspirated, sealed, and scintillation counts read on a Topcount (PerkinElmer). Data were analyzed in Genedata to determine inhibitor IC50 values.
The full length p300 SPA assay was run following the same protocol as p300 HAT SPA assay, but used 6 nM purified full length p300 (purchased from Active Motif) in place of the purified p300-HAT domain.

[2] = test system: acetylation of chromatin at H3K18 (catalyzed by p300 and CBP) in HCT-116 cells; assay: H3K18Ac MSD cellular assay; format: cell-based; settings: 2 hr treatment, average of at least 2 replicate titrations
Description: Select compounds were also evaluated in a H3K18Ac MSD cellular assay that measures the ability of compounds to inhibit the acetylation of chromatin at H3K18, a process catalyzed by p300 and CBP. In a typical experiment the p300 HAT inhibitory activity inside cells of the compounds described herein was determined in accordance with the following experimental method. 20 k HCT-116 cells per well are plated in 75 μL RPMI+10% FBS media the night before treatment. Compounds plated in DMSO at 4× final concentration are resuspended in 30 μL RPMI+10% FBS, then 25 μL is combined with corresponding wells containing cells. Treated cells are incubated for 2 hr at 37° C., then lysed in 500 μL final volume and frozen at −80° C. MSD plates (Meso Scale Discovery) are coated overnight at 4° C. with 60 μL 1:500α-total histone antibody (Millipore MAB3422) in PBS. Plates are then blocked with 5% BSA in TBST shaking at RT for 1 hr, washed, and 30 μL lysate added to each well for 2 hr shaking at RT. Plates are washed and 25 μL 1:216α-H3K18ac antibody (CST 9675) in PBS added, then incubated for 1 hr shaking at RT. Plates are washed again, then 25 μL 1:1000 Sulfo-Tag goat a-rabbit antibody (Meso Scale Discovery R32Ab-1) in PBS is added for 1 hr shaking at RT. Plates are washed once more, then 150 μL 1× Read Buffer (MSD #R92TD-3) is added to all wells and read on MSD SECTOR Imager 2400 using the conventional read setup.

[3] = target: p300 HAT domain (residues 1287-1666) (Homo sapiens (Human), UniProt Q09472); assay: p300 HAT SPA assay (scintillation proximity assay, acetylation of biotinylated H3(1-21) peptide); format: biochemical; settings: p300 HAT domain; average of at least 2 replicate titrations; read-out: P300 HAT SPA IC50
p300 HAT domain (residues 1287-1666), sequence (Q09472 1287-1666): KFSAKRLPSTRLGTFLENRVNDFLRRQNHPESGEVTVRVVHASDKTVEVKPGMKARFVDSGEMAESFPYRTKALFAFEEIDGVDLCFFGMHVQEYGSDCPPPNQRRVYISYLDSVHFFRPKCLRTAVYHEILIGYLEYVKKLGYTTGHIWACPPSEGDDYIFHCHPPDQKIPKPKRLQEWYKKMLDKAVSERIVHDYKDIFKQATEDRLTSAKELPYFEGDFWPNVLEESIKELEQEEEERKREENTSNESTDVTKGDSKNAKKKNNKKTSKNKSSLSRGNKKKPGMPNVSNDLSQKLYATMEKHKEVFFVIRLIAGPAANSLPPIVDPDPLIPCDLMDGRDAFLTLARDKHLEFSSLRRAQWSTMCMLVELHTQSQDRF
Outline: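 Purified p300 HAT domain reaction transferred to streptavidin plates to capture biotinylated H3(1-21) peptide, incubated 1.5 hr at RT, and read by scintillation proximity. IC50 values derived from concentration-response data.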

full length p300, sequence (Q09472 whole entry): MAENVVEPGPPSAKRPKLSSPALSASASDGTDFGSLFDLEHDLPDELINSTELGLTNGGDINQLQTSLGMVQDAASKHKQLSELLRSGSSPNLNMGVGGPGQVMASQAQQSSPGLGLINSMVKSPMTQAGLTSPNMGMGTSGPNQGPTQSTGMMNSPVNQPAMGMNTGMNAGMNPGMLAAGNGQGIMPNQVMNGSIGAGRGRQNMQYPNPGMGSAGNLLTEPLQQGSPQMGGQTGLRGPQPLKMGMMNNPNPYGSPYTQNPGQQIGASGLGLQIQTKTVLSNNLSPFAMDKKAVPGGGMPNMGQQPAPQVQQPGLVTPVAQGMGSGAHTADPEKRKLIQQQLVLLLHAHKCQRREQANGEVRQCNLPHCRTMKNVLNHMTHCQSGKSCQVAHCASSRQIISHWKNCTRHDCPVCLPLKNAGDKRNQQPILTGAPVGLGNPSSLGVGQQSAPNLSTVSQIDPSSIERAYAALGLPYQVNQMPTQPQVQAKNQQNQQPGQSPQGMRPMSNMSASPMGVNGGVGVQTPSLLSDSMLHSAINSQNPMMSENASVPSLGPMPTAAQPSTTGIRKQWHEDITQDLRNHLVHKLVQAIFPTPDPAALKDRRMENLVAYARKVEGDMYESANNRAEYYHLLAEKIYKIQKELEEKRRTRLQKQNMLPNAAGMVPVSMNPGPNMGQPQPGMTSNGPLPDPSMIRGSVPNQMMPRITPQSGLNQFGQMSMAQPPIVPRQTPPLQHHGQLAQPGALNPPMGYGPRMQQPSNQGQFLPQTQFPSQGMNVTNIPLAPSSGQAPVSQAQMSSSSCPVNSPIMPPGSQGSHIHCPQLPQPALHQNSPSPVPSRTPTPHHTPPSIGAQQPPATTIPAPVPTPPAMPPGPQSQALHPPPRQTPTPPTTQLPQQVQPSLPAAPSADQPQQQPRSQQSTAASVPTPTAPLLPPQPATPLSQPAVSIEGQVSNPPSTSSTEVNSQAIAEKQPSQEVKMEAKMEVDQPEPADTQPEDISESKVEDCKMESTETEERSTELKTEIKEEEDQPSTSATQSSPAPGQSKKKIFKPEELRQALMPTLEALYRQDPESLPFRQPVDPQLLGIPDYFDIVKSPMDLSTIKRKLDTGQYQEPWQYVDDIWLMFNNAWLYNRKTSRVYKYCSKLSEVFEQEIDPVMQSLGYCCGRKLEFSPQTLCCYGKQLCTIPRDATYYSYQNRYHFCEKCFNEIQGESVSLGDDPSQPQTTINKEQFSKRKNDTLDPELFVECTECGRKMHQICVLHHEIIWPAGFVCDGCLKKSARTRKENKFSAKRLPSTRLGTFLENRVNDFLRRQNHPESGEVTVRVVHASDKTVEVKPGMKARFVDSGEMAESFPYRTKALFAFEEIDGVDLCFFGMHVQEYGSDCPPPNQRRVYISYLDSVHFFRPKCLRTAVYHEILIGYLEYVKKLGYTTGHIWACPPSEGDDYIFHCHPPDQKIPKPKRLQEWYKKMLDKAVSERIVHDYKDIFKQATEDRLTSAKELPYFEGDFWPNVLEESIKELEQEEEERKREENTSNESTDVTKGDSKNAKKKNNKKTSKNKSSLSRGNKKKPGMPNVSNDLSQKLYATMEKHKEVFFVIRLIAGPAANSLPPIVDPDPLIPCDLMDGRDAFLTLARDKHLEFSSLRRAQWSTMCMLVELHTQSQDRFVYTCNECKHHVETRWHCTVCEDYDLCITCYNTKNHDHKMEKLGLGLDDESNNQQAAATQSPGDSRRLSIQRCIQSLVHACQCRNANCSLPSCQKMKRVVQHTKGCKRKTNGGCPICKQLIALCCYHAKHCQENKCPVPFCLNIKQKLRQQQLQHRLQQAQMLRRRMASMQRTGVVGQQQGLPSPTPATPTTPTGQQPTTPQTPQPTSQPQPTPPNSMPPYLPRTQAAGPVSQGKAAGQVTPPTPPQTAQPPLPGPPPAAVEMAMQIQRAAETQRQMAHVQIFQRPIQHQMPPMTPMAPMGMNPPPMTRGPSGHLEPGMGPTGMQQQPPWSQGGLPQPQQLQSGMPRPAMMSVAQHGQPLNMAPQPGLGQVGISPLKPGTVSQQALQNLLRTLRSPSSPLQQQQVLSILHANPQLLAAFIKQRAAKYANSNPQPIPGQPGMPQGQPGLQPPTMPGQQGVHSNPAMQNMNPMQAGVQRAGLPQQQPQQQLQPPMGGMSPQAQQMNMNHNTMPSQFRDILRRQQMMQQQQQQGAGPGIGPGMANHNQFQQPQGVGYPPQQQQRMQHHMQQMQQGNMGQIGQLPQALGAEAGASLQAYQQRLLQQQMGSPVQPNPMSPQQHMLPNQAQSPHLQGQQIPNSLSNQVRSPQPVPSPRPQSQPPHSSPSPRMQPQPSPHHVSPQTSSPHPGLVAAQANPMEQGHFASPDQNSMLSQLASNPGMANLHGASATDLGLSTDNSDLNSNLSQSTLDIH

Row | IC50 [1] [nM] | EC50 ([2]; Homo sapiens, HCT-116, 2 h) [nM] | IC50 [3] [nM] | EC50 [2] [nM] | Compound
1 | 145 | 3900 | 4210 |  | O=C(c1c[nH]c2ccccc12)C(NCCc1ccc(Cl)cc1)c1cccnc1 (racemic) [43 Racemic, (rac)-2-((4-chlorophenethyl)amino)-1-(1H-indol-3-yl)-2-(pyridin-3-yl)ethan-1-one]
2 | 219 | 13400 | 5550 |  | Cc1nc(C(=O)C(NCCc2ccc(Cl)cc2)c2ccccc2)c2ccccn12 (single isomer, unassigned) [45 Isomer 1]
3 | 283 | 29400 | 6550 |  | O=C(c1cnc2ccccn12)C(NCCc1ccc(Cl)cc1)c1ccccc1 (single isomer, unassigned) [46 Isomer 2]
4 | 178 | 546 | 1090 |  | COc1ccc2c(C(=O)C(NCCc3ccc(Cl)cc3)c3ccccc3)c[nH]c2c1 (single isomer, unassigned) [60 Isomer 2]
5 | 33.5 | 817 | 1020 |  | COc1ccc(CCNC(C(=O)c2c[nH]c3c(C)cccc23)c2ccccc2)cc1 (single isomer, unassigned) [80 Isomer 2]
6 | 11.6 | 113 | 200 |  | CNC(=O)Cn1cc(-c2ccc3c(C(=O)C(NCCc4ccc(Cl)cc4)c4ccccc4)c[nH]c3c2)cn1 (single isomer, unassigned) [87 Isomer 2]
7 | 2.19 | 154 | 36.2 |  | CN1CCC(Oc2ccc3c(C(=O)C(NCCc4ccc(C#N)cc4)c4ccccc4)c[nH]c3c2)CC1 (single isomer, unassigned) [126 Isomer 2]
8 | 14 |  | 26 | 36.6 | CCNC(=O)c1ccc2c(C(=O)[C@@H](NCCc3ccc(C#N)cc3)c3ccccc3)c[nH]c2c1 (single isomer, unassigned) [146 Isomer 2]
9 | 28.7 | 327 | 1260 |  | CN(C)C(=O)c1ccc2c(C(=O)C(NCCc3ccc(Cl)cc3Cl)c3ccccc3)c[nH]c2c1 (single isomer, unassigned) [152 Isomer 2]
10 | < 2 | 46.6 | 17 |  | CNC(=O)c1ccc2c(C(=O)C(NCCc3ccc(C#N)cc3)c3ccccc3)c[nH]c2c1 (single isomer, unassigned) [156 Isomer 2]

Further lines, the compound ahead of its results:

Row | Compound | IC50 [1] [nM] | EC50 ([2]; Homo sapiens, HCT-116, 2 h) [nM] | IC50 [3] [nM] | EC50 [2] [nM]
11 | NS(=O)(=O)c1ccc(CCNC(C(=O)c2c[nH]c3c(Cl)cccc23)c2ccccc2)cc1 (single isomer, unassigned) [15 Isomer 2] | 81.2 | 405 | 1490 | 
12 | O=C(c1c[nH]c2ccccc12)C(NCCc1ccc(C(F)(F)F)cc1)c1ccccc1 (single isomer, unassigned) [21 Isomer 1] | 100 | 91.3 | 715 | 
13 | O=C(c1c[nH]c2ccccc12)C(NCCc1ccc(F)cc1)c1ccccc1 (single isomer, unassigned) [22 Isomer 2] | 20.8 | 1690 | 2320 | 
14 | NS(=O)(=O)c1ccc(CCNC(C(=O)c2c[nH]c3cnccc23)c2ccccc2)cc1 (single isomer, unassigned) [32 Isomer 1] | 102 | 3670 | 1450 | 
15 | CN(C)c1ccc(CCNC(C(=O)c2c[nH]c3ccccc23)c2ccccc2)cc1 (single isomer, unassigned) [39 Isomer 2] | 27.5 | 529 | 770 | 
16 | CN(C)C(=O)CCc1ccc2c(C(=O)C(NCCc3ccc(F)cc3)c3ccccc3)c[nH]c2c1 (single isomer, unassigned) [49 Isomer 2] | 55.3 | 754 | 2210 | 
17 | COc1ccc2c(C(=O)C(NCCc3ccc(S(N)(=O)=O)cc3)c3ccccc3)c[nH]c2c1 (single isomer, unassigned) [51 Isomer 2] | 25.5 | 324 | 1290 | 
18 | O=C(c1c[nH]c2cc(OCc3ccccc3)ccc12)C(NCCc1ccc(F)cc1)c1ccccc1 (single isomer, unassigned) [61 Isomer 2] | 49.7 | 825 | 1070 | 
19 | CN(C)C(=O)Cc1ccc2c(C(=O)C(NCCc3ccc(C#N)cc3)c3ccccc3)c[nH]c2c1 (single isomer, unassigned) [63 Isomer 1] | 8.78 | 337 | 382 | 
20 | CCNC(=O)c1ccc2c(C(=O)C(NCC(C)c3ccc(C#N)cc3)c3ccccc3)cnn2c1 (single isomer, unassigned) [69 Isomer 4] | 17.9 | 43.9 | 20.7 | 
21 | CCNC(=O)c1ccc2c(C(=O)C(NCC(C)c3ccc(C#N)cc3)c3ccccc3)c[nH]c2c1 (single isomer, unassigned) [75 Isomer 4] | 0.711 | 19.3 | 8.76 | 
22 | Cn1cc(-c2ccc3c(C(=O)C(NCCc4ccc(F)cc4)c4ccccc4)c[nH]c3c2)cn1 (single isomer, unassigned) [78 Isomer 2] | 10.9 | 104 | 716 | 
23 | O=C(c1c[nH]c2cc(-c3cccnc3)ccc12)C(NCCc1ccc(F)cc1)c1ccccc1 (single isomer, unassigned) [81 Isomer 2] | 14.6 | 193 | 1150 | 
24 | O=C(c1c[nH]c2cc(-c3ccncc3)ccc12)C(NCCc1ccc(F)cc1)c1ccccc1 (single isomer, unassigned) [82 Isomer 2] | 18.2 |  | 875 | 128
25 | CC(CNC(C(=O)c1cnn2cc(-c3cnn(C)c3)ccc12)c1ccccc1)c1ccc(C#N)cc1 (single isomer, unassigned) [102 Isomer 4] | 0.818 | 43 | 9.36 | 
26 | O=C(c1c[nH]c2cc(-n3ccnc3)ccc12)C(NCCc1ccc(F)cc1)c1ccccc1 (single isomer, unassigned) [117 Isomer 1] | 14.2 | 162 | 839 | 
27 | O=C(c1c[nH]c2cc(-n3cccn3)ccc12)C(NCCc1ccc(F)cc1)c1ccccc1 (single isomer, unassigned) [118 Isomer 2] | 81.3 | 893 | 2650 | 
28 | CN1CCN(c2ccc3c(C(=O)C(NCCc4ccc(F)cc4)c4ccccc4)c[nH]c3c2)CC1 (single isomer, unassigned) [123 Isomer 2] | 12.3 | 216 | 808 | 
29 | O=C(O)c1ccc(CCNC(C(=O)c2c[nH]c3ccccc23)c2ccccc2)cc1 (single isomer, unassigned) [132 Isomer 1] | 63.3 | 4450 | 1830 | 
30 | NC(=O)c1ccc(CCNC(C(=O)c2c[nH]c3ccccc23)c2ccccc2)cc1 (single isomer, unassigned) [133 Isomer 2] | 101 | 1440 | 2120 | 
31 | CNC(=O)c1ccc(CCNC(C(=O)c2c[nH]c3ccccc23)c2ccccc2)cc1 (single isomer, unassigned) [134 Isomer 2] | 151 | 1570 | 5160 | 
32 | N#Cc1ccc(CCNC(C(=O)c2c[nH]c3cc(C(=O)O)ccc23)c2ccccc2)cc1 (single isomer, unassigned) [155 Isomer 1] | 77.3 | 16700 | 2240 | 
